The text below walks through data of patent US8258137B2, “Process for release of biologically active species from mesoporous oxide systems” (Katholieke Universiteit Leuven, priority 2008, dated 2012).

The conditions of data set [1]: background values, cited from earlier work.
Data set [2] can be described thus: Oral pharmacokinetics in dogs. The conditions noted are these: for systemic exposure after oral dosing (HPLC-UV): dogs, oral 20 mg, 4 dogs. As for the experimental part:
Details of the dog's experiments were as follows: Marshall Beagle dogs (1.5-3 years of age, 7.1-10.0 kg, male) were housed according to Belgian laws and European regulations for animal experiments, and with free access to water and food. The comparative bioavailability study was performed according to a cross-over design (n=5). After administration of the capsules, 10 mL of water was given to facilitate swallowing. The evaluation of the formulation containing pure crystalline itraconazole was performed with 4 dogs. Blood samples (2.5 mL) were collected from the vena jugularis before dosing and at 0.25, 0.5, 1, 2, 3, 4, 6, 8 hours respectively after dosing. Immediately after blood collection, plasma was harvested by centrifugation at 2,500 g for 10 minutes. Plasma was then transferred to a fresh tube and frozen at −20° C. prior to analysis.
The mobile phase consisted of a methanol/25 mM sodium acetate mixture (78/22 by volume) at pH 3.3.
The maximal plasma concentrations (Cmax) and the time (Tmax) required to reach Cmax were determined from the individual time versus concentration profiles. Systemic exposure was determined by calculating AUC0-24h (rabbits) and AUC0-8h (dogs) using the linear trapezoidal rule. Pharmacokinetic parameters between the three formulations tested were statistically compared with the non-parametric Wilcoxon signed-rank test. The level of significance was set at p<0.03 for comparing two out of three groups.

For data set [3] the following is noted: male, Wistar, rat, in vivo.
Procedure: Male Wistar rats of about 350 g were anaesthetized with a ketamin (Anesketin, commercially available from Eurovet, Heusden, Belgium)—xylazin (Xyl-M 2%, commercially available from VMD, Arendonk, Belgium) mixture (87.5 and 8.75 mg/kg respectively). The left jugular vein was cannulated with a heparinized (50 IU·mL^−1) polyethylene cannula (1.02 mm outer diameter; commercially available from Portex, Kent, United Kingdom) for blood supply from a donor rat during the perfusion experiment. A laparotomy was performed and the small intestine was exposed. A segment of the ileum (4-10 cm) was isolated by inserting two glass cannulas (4 mm o.d., 3 mm i.d.) at the proximal and distal end of the segment. Polyethylene tubing (6.5 mm o.d., 3.1 mm i.d.) was connected to the inlet cannula. The intestinal content was removed by perfusing the segment with pre-warmed TM (38° C.) at a flow rate of 3 mL/min. The perfusion pump (Minipuls3, commercially available from Gilson, Middleton, USA) was placed between the reservoir and the inlet cannula. After pre-incubation of the intestine with TM, the mesenteric vein draining the isolated part of the ileum was cannulated using the top end (1 cm) of a catheter (Insyte-W® 0.7×19 mm, commercially available from Beckton Dickinson, Salt Lake City, Utah). […]
Plasma concentrations of itraconazole were determined by HPLC as follows. […]
Data set [4] in a line: Oral pharmacokinetics in rabbits. It counts as in vivo, New Zealand White rabbits. Conditions: for Tmax: oral. As for the experimental part:
Prior to oral drug administration, the rabbits (n=5) were fasted overnight (>12 hours). After receiving the oral dose, 3 mL of water was administered to facilitate swallowing. After 4 hours, the rabbits had free access to food and water. A wash out period of seven days was allowed between subsequent dose administrations. […] Plasma was then transferred to a fresh Eppendorf tube and frozen at −20° C. prior to analysis.

Data set [5] can be described thus: Equilibrium solubility of itraconazole in FaSSIF. In kind it is physicochemical. Conditions: thermodynamic from solid; FaSSIF pH 6.5, 37° C., equilibration up to one week.
The test system of the next data set is Caco-2 cell monolayer. Put plainly: Caco-2 cell monolayer transport. It counts as in vitro ADME. As for the experimental part: As receiver medium for Caco-2 transport experiments, 0.2 wt.-% TPGS (D-α-tocopherol polyethylene glycol 1000 succinate, commercially available from Eastman, Anglesey, England) in transport medium (hereinafter referred to as TM) [HBSS Hanks' Balanced Salt Solution supplemented with glucose to obtain a final concentration of 25 mM, commercially available from Sigma-Aldrich, Steinheim, Germany and Hepes-buffer (10 mM, pH 7.4, N-2-hydroxyethylpiperazine-N′-2-ethanesulfonic acid, commercially available from Lonza, Verviers, Belgium)] was used. To maintain sink conditions, TPGS was included in the medium added to the basolateral side of the Caco-2 cell monolayer.
Caco-2 cells were purchased from Cambrex Biosciences, Walkersville, Md., United States of America. Caco-2 cells were grown in 75 cm^2 culture flasks at 37° C. in an atmosphere of 5% CO2 and 90% relative humidity. Cells were passaged every 3-4 days (at 70-80% confluence) at a split ratio of 1 to 7. Cells were negative for Mycoplasma infection.
For transport experiments, Caco-2 cells were plated at a density of 88,500 cells/insert on Costar® Transwell membrane inserts (3 μm pore diameter, 12 mm diameter; commercially available from Corning Inc., New York). Confluence was reached within 3-4 days after seeding and the monolayers were used for the experiments 18-19 days post-seeding. Cell passages between 50 and 85 were used in the experiments. Transepithelial Electrical Resistance (hereinafter referred as TEER) values were measured with an EndOhm Voltohmmeter (commercially available from WPI, Aston, England). Only monolayers with initial TEER values higher than 200 Ω·cm^2 were used. All volumes amounted to 0.5 mL at the apical side of the monolayer and 1.5 mL at the basolateral side. After rinsing the monolayers 3 times with TM, a pre-incubation step (30 minutes) with TM (control) was performed.
[…] The samples were diluted with methanol (1:1 volume ratio) and itraconazole concentration was determined by HPLC. TEER values were measured again at the end of the experiment and were higher than 95% of the initial value.
(Caco-2 monolayers are a common model of the intestinal barrier.)

For data set [6] the following is noted: J. Voorspoels et al., The Veterinary Record (October 1999); cited from earlier work.

Usually Tmax stands for the time from dosing to the highest level. As usually defined, the solubility (thermodynamic) is solubility found after equilibrating the solid with the medium.

≈ marks a conversion by molar mass, not a printed value. Like-named read-outs stand apart in the source and are kept apart here.

For `CC(C)(C)c1ccc(C(O)CCCN2CCC(C(O)(c3ccccc3)c3ccccc3)CC2)cc1` (centres unmarked) [terfenadine], the water-solubility result in data set [1] is “less than 0.01 mg/mL”.

In the case of `CCC(C)n1ncn(-c2ccc(N3CCN(c4ccc(OCC5COC(Cn6cncn6)(c6ccc(Cl)cc6Cl)O5)cc4)CC3)cc2)c1=O` (centres unmarked) [itraconazole], the “systemic exposure after oral dosing (HPLC-UV)” value in data set [2] (listed as crystalline itraconazole) is “no systemic itraconazole could be detected”; in data set [2] (listed as pure crystalline itraconazole) it was “no systemic concentrations of itraconazole and its main metabolite hydroxy-itraconazole could be observed”. This molecule also yielded an AUC0-8 h itraconazole in data set [2] (male, Marshall Beagle, dog, in vivo, po, 20 mg) of 0 ± 0 µM·h. Moreover, the “Total transport after 60 minutes” value amounted to 0.03 nmol/cm in data set [3] and 0.50 nmol/cm in data set [3] (75 μM). Besides, the Tmax in data set [4] (female, New Zealand White, rabbit, plasma, 8 mg) was determined as 9.8 h; in data set [4] (female, New Zealand White, rabbit, plasma, 8.4 mg), 10 h. Moreover, the AUC(0-t) in data set [4] (female, New Zealand White, rabbit, plasma, po, 8 mg, single oral capsule dose about 8 mg, n=5, read-out: AUC0-24 h itraconazole) was found to be 0.521 µM·h. The molecule further displayed an AUC0-24 h itraconazole in data set [4] (single oral capsule dose about 8 mg, n=5, listed as crystalline itraconazole) of 0.52 µM·h. In data set [5], the thermodynamic solubility is 0.4 µM (≈ 0.282 µg/mL). Further, the results for the “total transport of itraconazole after 90 minutes” value in the data set with Caco-2 cell monolayer (donor: 10 μM supersaturated condition in FaSSIF (solvent shift)), with Caco-2 cell monolayer (donor: 75 μM supersaturated condition in FaSSIF (solvent shift)) and in the data set on Caco-2 cell monolayer (donor: saturated itraconazole solution in FaSSIF) were 1.2 µg, 2.2 µg and 0.09 µg, respectively.

For `CS(=O)(=O)c1ccc([C@@H](O)[C@@H](CF)NC(=O)C(Cl)Cl)cc1` [florfenicol, D-(threo)-1-p-methylsulfonyl phenyl-2-dichloroacetamido-3-fluoro-1-propanol], the water-solubility in data set [1] is 1300 µg/mL; in data set [1] (listed as Florfenicol), “about 1.3 mg/mL”. Moreover, the oral bioavailability result in data set [6] is on record as “good oral bioavailability”.
